The text below walks through data of patent US8513270B2, “Substituted heterocycles as Janus kinase inhibitors” (Incyte Corporation, priority 2006, dated 2013).

pIC50: −log10 of the molar value. Where a name gives a salt, the structure may show the parent alone.

In one experiment the target is TF1-BCRABL1 cells (Homo sapiens, UniProt P00519). Nature of the experiment: ABL1 cell based assay: viability of ABL1-dependent cell line (CellTiter-Glo). The following applies: 72 hours, cell viability; read-out: EXAMPLE F JAK2-TF1-BCRABL1 IC50. A digest of the protocol: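 ABL1-dependent cells plated at 3000 per well in RPMI 1640 with 10% FBS and exposed to compounds for 72 h at 37° C, 5% CO2, 0.2% DMSO final. Viability read by CellTiter-Glo luminescence; duplicate or more.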
For orientation: ATP-based viability assays read luminescence as a measure of living cells.

The test system of experiment [1] is JAK2_INA61 (cancer cell line dependent on cytokines and JAK/STAT signal transduction). Nature of the experiment: Cellular assay: viability of cytokine-dependent cancer cell line (CellTiter-Glo). The format is cell-based. Particulars: 72 hours, read-out: EXAMPLE B JAK2_INA61 IC50. How it is done: One or more compounds herein were tested for inhibitory activity of JAK targets according to at least one of the following cellular assays.
Compounds were added to the cells in DMSO/media (final concentration 0.2% DMSO) and incubated for 72 hours at 37° C., 5% CO2. The effect of compound on cell viability was assessed using the CellTiter-Glo Luminescent Cell Viability Assay (Promega) followed by TopCount (Perkin Elmer, Boston, Mass.) quantitation. Potential off-target effects of compounds were measured in parallel using a non-JAK driven cell line with the same assay readout. […] All experiments were performed in duplicate.

Experiment [2] addresses T1, human JAK1 (a.a. 837-1142) (Homo sapiens, UniProt P23458).
T1 construct: human JAK1 (a.a. 837-1142); His tag (N); made in house; host or cells: insect cells (baculovirus)
Nature of the experiment: In vitro JAK kinase assay (HTRF), JAK1. The format is biochemical. Particulars: JAK1, 90 μM ATP; read-out: EXAMPLE A JAK2-JAK1 HTRF-2 IC50. An outline of the steps:
(§1)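 His-tagged catalytic domains from baculovirus-infected insect cells phosphorylated 500 nM biotinylated peptide in 50 mM Tris pH 7.8, 100 mM NaCl, 5 mM DTT, 0.01% BSA for 1 h at room temperature. ATP was 90 μM (JAK1), 30 μM (JAK2), 3 μM (JAK3). Detection used Eu-Py20/SA-APC; IC50s were derived.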

Experiment [3] addresses T2, human JAK2 (a.a. 828-1132) (Homo sapiens, UniProt O60674).
T2 construct: JAK2 (a.a. 828-1132); His tag (N); made in house; host or cells: insect cells (baculovirus)
Nature of the experiment: In vitro JAK kinase assay (HTRF), JAK2. The format is biochemical. The following applies: JAK2, 30 μM ATP; read-out: EXAMPLE A HTS-JAK2 HTRF-2 IC50. An outline of the steps: as §1
Background: Time-resolved FRET reads energy transfer from a long-lived donor to a nearby acceptor.

The target in experiment [4] is T3, human JAK3 (a.a. 781-1124) (Homo sapiens, UniProt P52333).
T3 construct: JAK3 (a.a. 781-1124); His tag (N); made in house; host or cells: insect cells (baculovirus)
Nature of the experiment: In vitro JAK kinase assay (HTRF), JAK3. The format is biochemical. The following applies: JAK3, 3 μM ATP; read-out: EXAMPLE A JAK2-JAK3 HTRF-2 IC50. A digest of the protocol:
as §1

T2 sequence (O60674 828-1132): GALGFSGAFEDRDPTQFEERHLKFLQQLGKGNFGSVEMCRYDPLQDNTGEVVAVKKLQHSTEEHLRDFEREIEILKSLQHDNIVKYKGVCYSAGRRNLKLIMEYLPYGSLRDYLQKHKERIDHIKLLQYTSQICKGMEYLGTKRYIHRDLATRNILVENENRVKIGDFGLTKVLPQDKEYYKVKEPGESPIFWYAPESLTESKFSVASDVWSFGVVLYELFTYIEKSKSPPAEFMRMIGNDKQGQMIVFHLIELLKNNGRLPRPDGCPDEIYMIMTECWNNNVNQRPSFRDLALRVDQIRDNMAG
TF1-BCRABL1 cells, sequence (P00519 whole entry, change not shown): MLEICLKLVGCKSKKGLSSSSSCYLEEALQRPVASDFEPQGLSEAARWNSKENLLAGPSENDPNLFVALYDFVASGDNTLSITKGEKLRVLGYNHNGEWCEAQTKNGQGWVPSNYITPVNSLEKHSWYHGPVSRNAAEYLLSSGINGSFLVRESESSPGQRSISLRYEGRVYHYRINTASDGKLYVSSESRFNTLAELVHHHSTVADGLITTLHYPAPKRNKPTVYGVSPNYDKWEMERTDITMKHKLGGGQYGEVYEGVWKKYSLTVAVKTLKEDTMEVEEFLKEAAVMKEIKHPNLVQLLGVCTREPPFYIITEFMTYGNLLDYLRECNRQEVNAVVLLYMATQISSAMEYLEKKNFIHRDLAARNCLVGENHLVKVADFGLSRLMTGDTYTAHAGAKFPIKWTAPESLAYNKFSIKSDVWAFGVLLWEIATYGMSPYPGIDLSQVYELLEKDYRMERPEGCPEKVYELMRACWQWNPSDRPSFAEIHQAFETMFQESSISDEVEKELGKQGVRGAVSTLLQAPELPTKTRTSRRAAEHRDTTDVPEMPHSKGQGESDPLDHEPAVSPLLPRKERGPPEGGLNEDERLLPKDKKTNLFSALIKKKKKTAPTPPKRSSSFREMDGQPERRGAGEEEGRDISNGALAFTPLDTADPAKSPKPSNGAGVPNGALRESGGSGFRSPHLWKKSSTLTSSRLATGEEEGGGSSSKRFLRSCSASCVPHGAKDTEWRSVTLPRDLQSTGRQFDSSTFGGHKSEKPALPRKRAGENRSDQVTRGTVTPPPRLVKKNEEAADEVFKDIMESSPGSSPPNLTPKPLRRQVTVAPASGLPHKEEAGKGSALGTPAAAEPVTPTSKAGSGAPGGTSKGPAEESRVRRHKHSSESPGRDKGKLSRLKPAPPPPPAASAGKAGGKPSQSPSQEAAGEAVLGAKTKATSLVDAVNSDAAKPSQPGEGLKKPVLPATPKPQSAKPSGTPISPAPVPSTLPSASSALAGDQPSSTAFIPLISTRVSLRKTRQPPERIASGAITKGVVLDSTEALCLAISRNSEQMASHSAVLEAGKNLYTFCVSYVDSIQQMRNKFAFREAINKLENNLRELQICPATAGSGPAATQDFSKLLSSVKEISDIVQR
T3 sequence (P52333 781-1124): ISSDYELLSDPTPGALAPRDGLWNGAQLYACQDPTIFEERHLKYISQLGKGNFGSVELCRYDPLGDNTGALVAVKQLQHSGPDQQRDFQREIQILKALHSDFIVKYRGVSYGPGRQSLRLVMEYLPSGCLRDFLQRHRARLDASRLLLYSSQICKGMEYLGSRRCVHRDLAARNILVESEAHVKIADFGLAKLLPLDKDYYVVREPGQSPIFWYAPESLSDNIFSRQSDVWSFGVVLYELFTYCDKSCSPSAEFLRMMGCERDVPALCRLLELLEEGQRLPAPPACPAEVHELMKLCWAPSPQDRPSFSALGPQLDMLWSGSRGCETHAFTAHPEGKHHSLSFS
T1 sequence (P23458 849-1154): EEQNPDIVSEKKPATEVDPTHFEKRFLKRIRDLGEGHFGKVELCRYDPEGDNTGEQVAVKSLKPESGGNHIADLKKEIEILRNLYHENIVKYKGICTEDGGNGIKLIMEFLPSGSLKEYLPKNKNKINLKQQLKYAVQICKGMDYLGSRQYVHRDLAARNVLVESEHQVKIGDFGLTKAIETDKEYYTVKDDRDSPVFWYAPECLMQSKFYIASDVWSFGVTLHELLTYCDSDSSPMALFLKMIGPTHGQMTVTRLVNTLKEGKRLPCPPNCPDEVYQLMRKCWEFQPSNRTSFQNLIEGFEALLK

Usually pIC50 stands for the IC50 on a negative log10 scale, so that one unit is a factor of ten. In the case of `Cc1ccc(C(=O)Nc2cccc(S(F)(F)(F)(F)F)c2)cc1-c1ccc2c(c1)[nH]c1ncncc12` [Example 65, 4-methyl-N-[3-(pentafluoro-λ(6)-sulfanyl)phenyl]-3-(9H-pyrimido[4,5-b]indol-7-yl)-benzamide], the GI50 at TF1-BCRABL1 cells is at most 500 nM. Also, the pIC50 in experiment [1] was 6.00 to 6.30; in experiment [2], at least 6.30; in experiment [3] it was at least 6.30; in experiment [4], at least 6.30.

As for `Cc1ccc(NC(=O)c2cc(C(F)(F)F)ccc2C(F)(F)F)cc1-c1ccc2[nH]c3ncncc3c2c1` [Example 45, N-[4-methyl-3-(9H-pyrimido-[4,5-b]indol-6-yl)phenyl]-2,5-bis(trifluoromethyl)benzamide], the GI50 at TF1-BCRABL1 cells lay within 500 to 1000 nM. The pIC50 in experiment [1] was below 6.00; in experiment [2] it was at least 6.30; in experiment [3] it was below 6.00; in experiment [4], below 6.00.

Take `Cc1ccc(NC(=O)c2cc(C(F)(F)F)cc(Cl)c2F)cc1-c1ccc2[nH]c3ncncc3c2c1` [Example 46, 3-chloro-2-fluoro-N-[4-methyl-3-(9H-pyrimido[4,5-b]indol-6-yl)phenyl]-5-(trifluoromethyl)-benzamide]: the GI50 at TF1-BCRABL1 cells is at most 500 nM. The pIC50 in experiment [1] was below 6.00; in experiment [2], at least 6.30; in experiment [3], at least 6.30; in experiment [4], below 6.00.

Consider `Cc1ccc(NC(=O)c2cc(F)cc(C(F)(F)F)c2)cc1-c1ccc2[nH]c3ncncc3c2c1` [Example 43, 3-fluoro-N-[4-methyl-3-(9H-pyrimido[4,5-b]indol-6-yl)-phenyl]-5-(trifluoromethyl)-benzamide], for which the GI50 at TF1-BCRABL1 cells was at most 500 nM. Moreover, the pIC50 was 6.00 to 6.30 in experiment [1], below 6.00 in experiment [2], at least 6.30 in experiment [3] and at least 6.30 in experiment [4].

For `Cc1ccc(NC(=O)c2cccc(S(F)(F)(F)(F)F)c2)cc1-c1ccc2c(c1)[nH]c1ncncc12` [Example 16, N-[4-methyl-3-(9H-pyrimido-[4,5-b]indol-7-yl)phenyl]-3-(pentafluoro-λ(6)-sulfanyl)-benzamide], the GI50 on TF1-BCRABL1 cells was at most 500 nM. Besides, the pIC50 in experiment [1] was 6.00 to 6.30; in experiment [2] it was at least 6.30; in experiment [3], at least 6.30; in experiment [4], at least 6.30.

Regarding `O=C(Nc1cccc(C(F)(F)F)c1)c1cccc(-c2ccc3c(c2)[nH]c2ncncc23)c1` [Example 59, 3-(9H-pyrimido[4,5-b]indol-7-yl)-N-[3-(trifluoromethyl)-phenyl]benzamide], the GI50 on TF1-BCRABL1 cells lay in the range of 500 to 1000 nM. In addition, the pIC50 in experiment [1] is below 6.00; in experiment [2], at least 6.30; in experiment [3], at least 6.30; in experiment [4], below 6.00.

`COc1ccc(C(=O)Nc2cccc(C(F)(F)F)c2)cc1-c1ccc2c(c1)[nH]c1ncncc12` [Example 60, 4-methoxy-3-(9H-pyrimido-[4,5-b]indol-7-yl)-N-[3-(trifluoromethyl)phenyl]-benzamide]: the GI50 on TF1-BCRABL1 cells was at most 500 nM. Further, the pIC50 in experiment [1] was below 6.00; in experiment [2] it was at least 6.30; in experiment [3], at least 6.30; in experiment [4] it was 6.00 to 6.30.

As for `Cc1ccc(C(=O)Nc2cccc(OC(F)(F)F)c2)cc1-c1ccc2c(c1)[nH]c1ncncc12` [Example 54, 4-methyl-3-(9H-pyrimido-[4,5-b]indol-7-yl)-N-[3-(trifluoromethoxy)phenyl]-benzamide], the GI50 at TF1-BCRABL1 cells is at most 500 nM. Also, the pIC50 is 6.00 to 6.30 in experiment [1], at least 6.30 in experiment [2], at least 6.30 in experiment [3] and at least 6.30 in experiment [4].

Regarding `Cc1ccc(C(=O)Nc2nnc(C(F)(F)F)s2)cc1-c1ccc2c(c1)[nH]c1ncncc12` [Example 61, 4-methyl-3-(9H-pyrimido-[4,5-b]indol-7-yl)-N-[5-(trifluoromethyl)-1,3,4-thiadiazol-2-yl]benzamide], at TF1-BCRABL1 cells, the GI50 lay in the range of 500 to 1000 nM. Besides, the pIC50 is below 6.00 in experiment [1], below 6.00 in experiment [2], below 6.00 in experiment [3] and at least 6.30 in experiment [4].

On to `Cc1ccc(NC(=O)c2ccc(F)c(C(F)(F)F)c2)cc1-c1ccc2[nH]c3ncncc3c2c1` [Example 42, 4-fluoro-N-[4-methyl-3-(9H-pyrimido[4,5-b]indol-6-yl)-phenyl]-3-(trifluoromethyl)-benzamide], for which, at TF1-BCRABL1 cells, the GI50 is at most 500 nM. For the same compound, the pIC50 is below 6.00 in experiment [1], at least 6.30 in experiment [2], at least 6.30 in experiment [3] and 6.00 to 6.30 in experiment [4].

As for `Cc1ccc(NC(=O)c2cccc(C(F)(F)F)c2)cc1-c1ccc2c(c1)[nH]c1ncncc12` [Example 1, N-[4-Methyl-3-(9H-pyrimido[4,5-b]indol-7-yl)phenyl]-3-(trifluoromethyl)benzamide trifluoroacetate], the GI50 at TF1-BCRABL1 cells is at most 500 nM. The pIC50 in experiment [1], in experiment [2], in experiment [3] and in experiment [4] was at least 6.30 throughout.

As for `Cc1ncc(NC(=O)c2cccc(C(F)(F)F)c2)cc1-c1ccc2c(c1)[nH]c1ncncc12` [Example 70, N-[6-methyl-5-(9H-pyrimido[4,5-b]indol-7-yl)pyridin-3-yl]-3-(trifluoromethyl)benzamide], the GI50 at TF1-BCRABL1 cells was at most 500 nM. Besides, the pIC50 in experiment [1] was 6.00 to 6.30; in experiment [2], at least 6.30; in experiment [3], at least 6.30; in experiment [4] it was at least 6.30.

As to `Cc1ccc(NC(=O)c2cccc(C(F)(F)F)c2F)cc1-c1ccc2c(c1)[nH]c1ncncc12` [Example 3, 2-fluoro-N-[4-methyl-3-(9H-pyrimido[4,5-b]indol-7-yl)-phenyl]-3-(trifluoromethyl)-benzamide], the GI50 at TF1-BCRABL1 cells is at most 500 nM. Besides, the pIC50 in experiment [1], in experiment [2], in experiment [3] and in experiment [4] was at least 6.30 in each case.

For `Cc1ccc(NC(=O)Nc2cccc(C(F)(F)F)c2)cc1-c1ccc2[nH]c3ncncc3c2c1` [Example 48, N-[4-Methyl-3-(9H-pyrimido[4,5-b]indol-6-yl)phenyl]-N′-[3-(trifluoromethyl)-phenyl]urea], the GI50 on TF1-BCRABL1 cells is at most 500 nM. In addition, the pIC50 was 6.00 to 6.30 in experiment [1], at least 6.30 in experiment [2], below 6.00 in experiment [3] and 6.00 to 6.30 in experiment [4].

Consider `Cc1cccc(NC(=O)c2ccc(C)c(-c3ccc4c(c3)[nH]c3ncncc34)c2)c1` [Example 53, 4-methyl-N-(3-methyl-phenyl)-3-(9H-pyrimido-[4,5-b]indol-7-yl)benzamide], for which, at TF1-BCRABL1 cells, the GI50 is at most 500 nM. The pIC50 in experiment [1] was 6.00 to 6.30; in experiment [2], at least 6.30; in experiment [3], at least 6.30; in experiment [4], at least 6.30.

`Cc1ccc(C(=O)Nc2cccc(C(F)(F)F)c2)cc1-c1ccc2c(c1)[nH]c1ncccc12` [Example 68, 4-Methyl-3-(9H-pyrido[2,3-b]indol-7-yl)-N-[3-(trifluoromethyl)phenyl]benzamide, trifluoroacetate salt]: the GI50 at TF1-BCRABL1 cells was at most 500 nM. The pIC50 in experiment [1] was below 6.00; in experiment [2], at least 6.30; in experiment [3], at least 6.30; in experiment [4], at least 6.30.

For the compound `Cc1ccc(NC(=O)c2cccc(F)c2)cc1-c1ccc2[nH]c3ncncc3c2c1` [Example 44, 3-fluoro-N-[4-methyl-3-(9H-pyrimido[4,5-b]indol-6-yl)-phenyl]benzamide], the GI50 on TF1-BCRABL1 cells was in the range of 500 to 1000 nM. Further, the pIC50 is below 6.00 in experiment [1], at least 6.30 in experiment [2], below 6.00 in experiment [3] and at least 6.30 in experiment [4].

On to `Cc1ccc(NC(=O)c2cc(C(F)(F)F)ccc2C(F)(F)F)cc1-c1ccc2c(c1)[nH]c1ncncc12` [Example 7, N-[4-methyl-3-(9H-pyrimido[4,5-b]indol-7-yl)phenyl]-2,5-bis(trifluoromethyl)benzamide], for which the GI50 at TF1-BCRABL1 cells was in the range of 500 to 1000 nM. The negative logarithm of the IC50 (pIC50) in experiment [1] was below 6.00; in experiment [2] it was at least 6.30; in experiment [3] it was below 6.00; in experiment [4], at least 6.30.

As for `Cc1ccc(C(=O)NCc2cc(F)ccc2F)cc1-c1ccc2c(c1)[nH]c1ncncc12` [Example 55, N-(2,5-difluorobenzyl)-4-methyl-3-(9H-pyrimido-[4,5-b]indol-7-yl)benzamide], the GI50 on TF1-BCRABL1 cells was in the range of 500 to 1000 nM. The pIC50 in experiment [1] is 6.00 to 6.30; in experiment [2] it was below 6.00; in experiment [3] it was below 6.00; in experiment [4], at least 6.30.
